In ChEMBL document CHEMBL1139171, “Synthesis and antifungal activity of 6-arylamino-phthalazine-5,8-diones and 6,7-bis(arylthio)-phthalazine-5,8-diones” (2007):
≈ marks a conversion by molar mass, not a printed value.

Assays:
Type in all cases: functional
Candida albicans = experiment: Antifungal activity against Candida albicans Berkout KCCM 50235 after 1 day by broth dilution method; conditions: KCCM 50235, 24 h
Candida tropicalis = experiment: Antifungal activity against Candida tropicalis Berkout KCCM 50662 after 1 day by broth dilution method
Pichia kudriavzevii = experiment: Antifungal activity against Candida krusei Berkout KCCM 11655 after 1 day by broth dilution method; conditions: KCCM 11655, 24 h
Cryptococcus neoformans = experiment: Antifungal activity against Cryptococcus neoformans KCCM 50564 after 1 day by broth dilution method; conditions: KCCM 50564, 24 h
Aspergillus niger = experiment: Antifungal activity against Aspergillus niger KCTC 1231 after 2 days by broth dilution method
Aspergillus flavus = experiment: Antifungal activity against Aspergillus flavus KCCM 11899 after 2 days by broth dilution method
[1] = Candida tropicalis, KCCM 50662, 24 h, read-out: MIC
[2] = Aspergillus niger, KCTC 1231, 48 h, read-out: MIC
[3] = Aspergillus flavus, KCCM 11899, 48 h, read-out: MIC

Structure (SMILES)	MIC (Candida albicans)	MIC (Candida tropicalis; [1])	MIC (Pichia kudriavzevii)	MIC (Cryptococcus neoformans)	MIC (Aspergillus niger; [2])	MIC (Aspergillus flavus; [3])	MIC (Candida tropicalis)	MIC (Aspergillus niger)	MIC (Aspergillus flavus)
O=C1C(Sc2ccc(F)cc2)=C(Sc2ccc(F)cc2)C(=O)c2cnncc21	6.3 µg/mL (≈ 15.3 µM)	6.3 µg/mL (≈ 15.3 µM)	100 µg/mL (≈ 242 µM)	> 100 µg/mL	12.5 µg/mL (≈ 30.3 µM)	> 100 µg/mL			
COc1ccc(SC2=C(Sc3ccc(OC)cc3)C(=O)c3cnncc3C2=O)cc1	25 µg/mL (≈ 57.3 µM)	100 µg/mL (≈ 229 µM)	100 µg/mL (≈ 229 µM)	> 100 µg/mL	12.5 µg/mL (≈ 28.6 µM)	> 100 µg/mL			
Nc1cccc2cnncc12	> 100 µg/mL	> 100 µg/mL	100 µg/mL (≈ 689 µM)	25 µg/mL (≈ 172 µM)	> 100 µg/mL	100 µg/mL (≈ 689 µM)			
O=C1C(Sc2ccc(Br)cc2)=C(Sc2ccc(Br)cc2)C(=O)c2cnncc21	50 µg/mL (≈ 93.6 µM)	50 µg/mL (≈ 93.6 µM)	> 100 µg/mL	> 100 µg/mL	> 100 µg/mL	50 µg/mL (≈ 93.6 µM)			
O=C1C(Sc2ccccc2)=C(Sc2ccccc2)C(=O)c2cnncc21		100 µg/mL (≈ 266 µM)			6.3 µg/mL (≈ 16.7 µM)	> 100 µg/mL	>100 µg/mL	6.3 µg/mL (≈ 16.7 µM)	100 µg/mL (≈ 266 µM)
O=C1C(Sc2ccc(O)cc2)=C(Sc2ccc(O)cc2)C(=O)c2cnncc21	100 µg/mL (≈ 245 µM)	> 100 µg/mL	> 100 µg/mL	> 100 µg/mL	> 100 µg/mL	> 100 µg/mL			
Cc1cccc(SC2=C(Sc3cccc(C)c3)C(=O)c3cnncc3C2=O)c1	12.5 µg/mL (≈ 30.9 µM)	50 µg/mL (≈ 124 µM)	> 100 µg/mL	> 100 µg/mL	6.3 µg/mL (≈ 15.6 µM)	100 µg/mL (≈ 247 µM)			
Nc1ccc(N)c2cnncc12	> 100 µg/mL	> 100 µg/mL	100 µg/mL (≈ 624 µM)	6.3 µg/mL (≈ 39.3 µM)	> 100 µg/mL	100 µg/mL (≈ 624 µM)			
O=C1C(Sc2cccc(Cl)c2)=C(Sc2cccc(Cl)c2)C(=O)c2cnncc21	12.5 µg/mL (≈ 28.1 µM)	100 µg/mL (≈ 225 µM)	> 100 µg/mL	> 100 µg/mL	6.3 µg/mL (≈ 14.1 µM)	> 100 µg/mL			
Nc1nc(=O)[nH]cc1F [FLUCYTOSINE]	25 µg/mL (≈ 194 µM)	12.5 µg/mL (≈ 96.8 µM)	50 µg/mL (≈ 387 µM)	12.5 µg/mL (≈ 96.8 µM)	25 µg/mL (≈ 194 µM)	100 µg/mL (≈ 775 µM)			

Now from value to molecule:

MIC (Candida albicans)	MIC (Candida tropicalis; [1])	MIC (Pichia kudriavzevii)	MIC (Cryptococcus neoformans)	MIC (Aspergillus niger; [2])	MIC (Aspergillus flavus; [3])	MIC (Candida tropicalis)	MIC (Aspergillus niger)	MIC (Aspergillus flavus)	Structure (SMILES)
50 µg/mL (≈ 175 µM)	25 µg/mL (≈ 87.5 µM)	25 µg/mL (≈ 87.5 µM)	3.2 µg/mL (≈ 11.2 µM)	100 µg/mL (≈ 350 µM)	25 µg/mL (≈ 87.5 µM)				O=C1C(Cl)=C(Nc2ccccc2)C(=O)c2cnncc21
50 µg/mL (≈ 165 µM)	50 µg/mL (≈ 165 µM)	50 µg/mL (≈ 165 µM)	6.3 µg/mL (≈ 20.7 µM)	> 100 µg/mL	> 100 µg/mL				O=C1C(Cl)=C(Nc2ccc(F)cc2)C(=O)c2cnncc21
12.5 µg/mL (≈ 39 µM)	12.5 µg/mL (≈ 39 µM)	6.3 µg/mL (≈ 19.7 µM)	100 µg/mL (≈ 312 µM)	> 100 µg/mL	> 100 µg/mL				O=C1C(Cl)=C(Nc2ccc(Cl)cc2)C(=O)c2cnncc21
3.2 µg/mL (≈ 7.14 µM)	12.5 µg/mL (≈ 27.9 µM)	> 100 µg/mL	100 µg/mL (≈ 223 µM)	3.2 µg/mL (≈ 7.14 µM)	25 µg/mL (≈ 55.8 µM)				O=C1C(Sc2ccc(F)c(F)c2)=C(Sc2ccc(F)c(F)c2)C(=O)c2cnncc21
12.5 µg/mL (≈ 30.4 µM)	12.5 µg/mL (≈ 30.4 µM)	12.5 µg/mL (≈ 30.4 µM)	100 µg/mL (≈ 243 µM)	> 100 µg/mL	50 µg/mL (≈ 121 µM)				O=C1C(Cl)=C(Nc2ccc(I)cc2)C(=O)c2cnncc21
12.5 µg/mL (≈ 37.9 µM)	3.2 µg/mL (≈ 9.69 µM)	12.5 µg/mL (≈ 37.9 µM)	12.5 µg/mL (≈ 37.9 µM)	50 µg/mL (≈ 151 µM)	50 µg/mL (≈ 151 µM)				O=C1C=C(Nc2ccc(Br)cc2)C(=O)c2cnncc21
25 µg/mL (≈ 77.7 µM)	3.2 µg/mL (≈ 9.95 µM)	> 100 µg/mL	50 µg/mL (≈ 155 µM)	100 µg/mL (≈ 311 µM)	100 µg/mL (≈ 311 µM)				O=C1C(Cl)=C(Nc2ccc(F)c(F)c2)C(=O)c2cnncc21
25 µg/mL (≈ 70.7 µM)	12.5 µg/mL (≈ 35.3 µM)	100 µg/mL (≈ 283 µM)	50 µg/mL (≈ 141 µM)	50 µg/mL (≈ 141 µM)	50 µg/mL (≈ 141 µM)				O=C1C(Cl)=C(Nc2cccc(C(F)(F)F)c2)C(=O)c2cnncc21
3.2 µg/mL (≈ 11.5 µM)	100 µg/mL (≈ 358 µM)	50 µg/mL (≈ 179 µM)	25 µg/mL (≈ 89.5 µM)	> 100 µg/mL	> 100 µg/mL				Cc1ccc(NC2=CC(=O)c3cnncc3C2=O)cc1C
25 µg/mL (≈ 78.1 µM)	25 µg/mL (≈ 78.1 µM)	25 µg/mL (≈ 78.1 µM)	3.2 µg/mL (≈ 10 µM)	12.5 µg/mL (≈ 39 µM)	25 µg/mL (≈ 78.1 µM)				O=C1C(Cl)=C(Nc2cccc(Cl)c2)C(=O)c2cnncc21
6.3 µg/mL (≈ 23.7 µM)	12.5 µg/mL (≈ 47.1 µM)	12.5 µg/mL (≈ 47.1 µM)	6.3 µg/mL (≈ 23.7 µM)	50 µg/mL (≈ 188 µM)	25 µg/mL (≈ 94.2 µM)				Cc1ccc(NC2=CC(=O)c3cnncc3C2=O)cc1
50 µg/mL (≈ 186 µM)	25 µg/mL (≈ 92.9 µM)	25 µg/mL (≈ 92.9 µM)	6.3 µg/mL (≈ 23.4 µM)	> 100 µg/mL	100 µg/mL (≈ 371 µM)				O=C1C=C(Nc2ccc(F)cc2)C(=O)c2cnncc21
12.5 µg/mL (≈ 44.4 µM)	6.3 µg/mL (≈ 22.4 µM)	12.5 µg/mL (≈ 44.4 µM)	6.3 µg/mL (≈ 22.4 µM)	25 µg/mL (≈ 88.9 µM)	25 µg/mL (≈ 88.9 µM)				COc1ccc(NC2=CC(=O)c3cnncc3C2=O)cc1
25 µg/mL (≈ 68.6 µM)	12.5 µg/mL (≈ 34.3 µM)	25 µg/mL (≈ 68.6 µM)	3.2 µg/mL (≈ 8.78 µM)	25 µg/mL (≈ 68.6 µM)	25 µg/mL (≈ 68.6 µM)				O=C1C(Cl)=C(Nc2ccc(Br)cc2)C(=O)c2cnncc21
